Laboratory results published in patent US5747235A, “Silver halide light sensitive emulsion layer having enhanced photographic sensitivity” (Eastman Kodak Company, priority 1996, dated 1998).
Structures can show the parent of a compound that is named as a salt.

Key:
[1] = Example 3: photographic speed and fog, 365 nm exposure, emulsion T-2; parameters: Fog: unit not given here; settings: for effect on dye desensitization: red dyed emulsion (D-II), 365 nm
Experimental: For photographic evaluation, each of the coating strips was exposed for 0.1 sec to a 365 nm emission line of a Hg lamp filtered through a Kodak Wratten filter number 18A and a step wedge ranging in density from 0 to 4 density units in 0.2 density steps. The exposed film strips were developed for 6 min in Kodak Rapid X-ray Developer (KRX). S365, relative sensitivity at 365 nm, was evaluated at a density of 0.2 units above fog.
(§1) This emulsion was precipitated using deionized gelatin. […] The chemically sensitized emulsion was then used to prepare coatings containing the fragmentable two-electron donor compounds. All of the experimental coating variations in Table III contained the hydroxybenzene 2,4-disulfocatechol (HB3) at a concentration of 13 mmole/ mole Ag, added to the melt before the addition of any further addenda. Where present, the blue sensitizing dye D-I or the red sensitizing dye D-II were added from methanol solution to the emulsion at 40° C. after the chemical sensitization and disulfocatechol addition.

[2] = Example 3: spectral sensitivity, wedge spectrographic exposure, emulsion T-2; settings: dyed control=100
Experimental: as §1
Additional testing was carried out to determine the response of the coatings described in Table III to a spectral exposure. Each of the coating strips was exposed for 0.1 sec on a wedge spectrographic instrument that covers the wavelength range from 400 to 750 nm. The instrument contains a tungsten light source and a step tablet ranging in density from 0 to 3 density units in 0.3 density steps. After developing exposed strips for 6 min in Kodak Rapid X-ray Developer (KRX), speed was read at 10 nm wavelength intervals at a density of 0.3 above fog. Correction for the instrument's variation in spectral irradiance with wavelength was done with a computer and a plot of log sensitivity vs. wavelength was generated. For this exposure, for each dye used, the relative sensitivity was set equal to 100 for the control coating with no fragmentable two-electron donor compound added.

[3] = Example 10: photographic sensitivity and fog, color format, blue sensitized emulsion T-2; settings: for Photographic Sensitivity SWR2B: control=100
Experimental: The hydroxybenzene, 2,4-disulfocatechcol (HB3) at a concentration of 13×10^-3 mole/mole Ag was added to the emulsion melt before the start of the chemical sensitization procedure. […] The fragmentable two-electron donors S-3, S-9, S-6, or S-8 were then added to the emulsion melt.
The melts were prepared for coating by adding additional water, deionized gelatin and coating surfactants. Coatings were prepared by combining the emulsion melts with a melt containing deionized gelatin and an aqueous dispersion of the cyan-forming color coupler CC-1 and coating the resulting mixture on acetate support. […] The structure of the color coupler CC-1 is given below: [drawing 120]
(§2) For photographic evaluation, each of the coating strips was exposed for 0.01 sec to a 3000K color temperature tungsten lamp filtered to give an effective color temperature of 5500K and further filtered through a Kodak Wratten filter number 2B, and a step wedge ranging in density from 0 to 4 density units in 0.20 density steps. This exposure gives light absorbed mainly by the blue sensitizing dye. The exposed film strips were developed for 31/4 minutes in Kodak C-41 color developer. SWR2B, relative sensitivity for this filtered exposure, was evaluated at a cyan density of 0.15 units above fog.

[4] = Example 11: photographic sensitivity and fog, color format, blue sensitized emulsion T-2; settings: for Photographic Sensitivity SWR2B: control=100
Experimental: The AgBrI tabular silver halide emulsion T-2 from Example 3 was optimally chemically and spectrally sensitized by adding NaSCN, 1.07 mmole of the blue sensitizing dye D-I per mole of silver, Na3 Au(S2 O3)2 ·2H2 O, Na2 S2 O3 ·5H2 O, and a benzothiazolium finish modifier and then subjecting the emulsion to a heat cycle to 65° C. The hydroxybenzene, 2,4-disulfocatechcol (HB3) at a concentration of 13×10^-3 mole/mole Ag was added to the emulsion melt before the start of the chemical sensitization procedure. This chemically sensitized emulsion was then used to prepare the experimental coating variations given in Table X. For all the variations in Table X, the antifoggant and stabilizer tetraazaindene (TAI) was added to the emulsion melt in an amount of 1.75 g/mole Ag before any further addenda. The fragmentable two-electron donors S-3, S-9, S-6, or S-8 were then added to the emulsion melt.
The melts were prepared for coating by adding additional water, deionized gelatin and coating surfactants. Coatings were prepared by combining the emulsion melts with a melt containing deionized gelatin and an aqueous dispersion of the cyan-forming color coupler CC-1 and coating the resulting mixture on acetate support. The final coatings contained Ag at 0.81 g/m^2, coupler at 1.61 g/m^2, and gelatin at 3.23 g/m^2. The coatings were overcoated with a protective layer containing gelatin at 1.08 g/m^2, coating surfactants, and a bisvinylsulfonylmethyl ether as a gelatin hardening agent. The structure of the color coupler CC-1 is given below: [drawing 120]
as §2
The AgBrI tabular emulsion T-2 as described in Example 3 was sensitized as described in Example 10 except that the hydroxybenzene HB3 was added at the completion of the chemical sensitization procedure. For all the variations in Table XI, the antifoggant and stabilizer tetraazaindene (TAI) was added to the emulsion melt in an amount of 1.75 g/mole Ag before any further addenda. The fragmentable two-electron donors S-12, S-14, S-13, or S-11 were then added to the emulsion melt. The melts were then coated and tested as described in Example 10.

[5] = 0.0022 x10^-3 mole/mole Ag, dye II 0.86 x10^-3
[6] = 0.0022 x10^-3 mole/mole Ag, dye II 0.86 x10^-3, dyed control 68
[7] = 0.007 x10^-3 mole/mole Ag, dye II 0.86 x10^-3
[8] = 0.007 x10^-3 mole/mole Ag, dye II 0.86 x10^-3, dyed control 68
[9] = 0.022 x10^-3 mole/mole Ag, dye I 0.91 x10^-3
[10] = 0.022 x10^-3 mole/mole Ag, dye I 0.91 x10^-3, dyed control 105
[11] = 0.07 x10^-3 mole/mole Ag, dye I 0.91 x10^-3
[12] = 0.07 x10^-3 mole/mole Ag, dye I 0.91 x10^-3, dyed control 105
[13] = 0.07 x10^-3 mole/mole Ag, no dye
[14] = 0.07 x10^-3 mole/mole Ag, no dye, control=100

With `CCSCCN(c1ccc(C)cc1)C(CC(=O)O)C(=O)O` (centres unmarked) [Compound S-8] as the compound, how does the Fog [1, 5] read?
Its Fog is 0.11.

What about the S365 [1, 6] of the same compound?
The S365 was 97.

And the Fog [1, 7]?
The Fog was 0.15.

And the S365 [1, 8]?
The S365 was 112.

And the Fog [1, 9]?
The Fog was 0.07.

What about the S365 [1, 10] of the same compound?
The S365 was 118.

What about the Fog [1, 11] of the same compound?
Its Fog is 0.12.

What about the S365 [1, 12] of the same compound?
The S365 was 120.

And the Fog [1, 13]?
The Fog was 0.13.

What about the S365 [1, 14] of the same compound?
Its S365 is 162.

What about the “effect on dye desensitization” value [1] of the same compound?
The value was “effective in ameliorating dye desensitization”.

What about the Sλ [2, 5] of the same compound?
Its Sλ is 141.

And the Sλ [2, 7]?
The Sλ was 166.

What about the Sλ [2, 9] of the same compound?
The Sλ was 112.

What about the Sλ [2, 11] of the same compound?
Its Sλ is 112.

What about the Fog ([3]; 0.022 x10^-3 mol/mol Ag) of the same compound?
Its Fog is 0.14.

And the “Photographic Sensitivity SWR2B” value ([3]; 0.022 x10^-3 mol/mol Ag)?
The value was 107.

What about the Fog ([3]; 0.07 x10^-3 mol/mol Ag) of the same compound?
Its Fog is 0.23.

And the “Photographic Sensitivity SWR2B” value ([3]; 0.07 x10^-3 mol/mol Ag)?
Its value is 110.

Which results are given for `CCSCCN(c1ccc(C)cc1)[C@@H](C)C(=O)[O-].[Na+]` [Compound S-3, N-(4-Methylphenyl)-N-(2-ethylthio-ethyl)alanine sodium salt]?
Fog [1, 5]: 0.28; S365 [1, 6]: 120; Fog [1, 7]: 0.75; Fog [1, 9]: 0.16; S365 [1, 10]: 132; Fog ([1]; 0.022 x10^-3 mole/mole Ag, no dye): 0.13; S365 ([1]; 0.022 x10^-3 mole/mole Ag, no dye, control=100): 151; effect on dye desensitization [1]: effective in ameliorating dye desensitization; Sλ [2, 5]: 166; Sλ [2, 9]: 120; Fog ([3]; 0.022 x10^-3 mol/mol Ag): 0.14; Photographic Sensitivity SWR2B ([3]; 0.022 x10^-3 mol/mol Ag): 97; Fog ([3]; 0.07 x10^-3 mol/mol Ag): 0.19; Photographic Sensitivity SWR2B ([3]; 0.07 x10^-3 mol/mol Ag): 110

With `CCSCCN(c1ccccc1)C(CC(=O)O)C(=O)O` (centres unmarked) [Compound S-14] as the compound, how does the Fog ([4]; 0.22 x10^-3 mol/molAg) read?
The Fog was 0.09.

What about the “Photographic Sensitivity SWR2B” value ([4]; 0.22 x10^-3 mol/molAg) of the same compound?
Its value is 170.

What about the Fog ([4]; 0.44 x10^-3 mol/molAg) of the same compound?
Its Fog is 0.09.

What about the “Photographic Sensitivity SWR2B” value ([4]; 0.44 x10^-3 mol/molAg) of the same compound?
The value was 178.

For `CCSCCN(c1ccccc1)C(C)C(=O)O` (centres unmarked) [Compound S-9, N-(Phenyl)-N-(2-thioethyl-ethyl)alanine sodium salt], which Fog [1, 5] is on record?
The Fog was 0.24.

What about the S365 [1, 6] of the same compound?
Its S365 is 115.

And the Fog [1, 7]?
Its Fog is 0.44.

And the S365 [1, 8]?
Its S365 is 107.

What about the Fog [1, 9] of the same compound?
Its Fog is 0.08.

What about the S365 [1, 10] of the same compound?
Its S365 is 159.

What about the Fog [1, 11] of the same compound?
Its Fog is 0.13.

What about the S365 [1, 12] of the same compound?
Its S365 is 162.

And the Fog [1, 13]?
The Fog was 0.13.

And the S365 [1, 14]?
Its S365 is 166.

What about the “effect on dye desensitization” value [1] of the same compound?
The value was “effective in ameliorating dye desensitization”.

And the Sλ [2, 5]?
Its Sλ is 162.

And the Sλ [2, 7]?
Its Sλ is 141.

And the Sλ [2, 9]?
Its Sλ is 126.

And the Sλ [2, 11]?
Its Sλ is 138.

And the Fog ([3]; 0.022 x10^-3 mol/mol Ag)?
Its Fog is 0.16.

And the “Photographic Sensitivity SWR2B” value ([3]; 0.022 x10^-3 mol/mol Ag)?
The value was 162.

What about the Fog ([3]; 0.07 x10^-3 mol/mol Ag) of the same compound?
Its Fog is 0.19.

And the “Photographic Sensitivity SWR2B” value ([3]; 0.07 x10^-3 mol/mol Ag)?
Its value is 182.

With `CCSCCN(c1ccc(C(=O)O)cc1)C(C)C(=O)O` (centres unmarked) [Compound S-11] as the compound, how does the Fog ([4]; 0.22 x10^-3 mol/molAg) read?
The Fog was 0.10.

And the “Photographic Sensitivity SWR2B” value ([4]; 0.22 x10^-3 mol/molAg)?
The value was 166.

And the Fog ([4]; 0.44 x10^-3 mol/molAg)?
Its Fog is 0.09.

And the “Photographic Sensitivity SWR2B” value ([4]; 0.44 x10^-3 mol/molAg)?
The value was 178.

For `CCSCCN(c1cccc(C(N)=O)c1)C(C)C(=O)O` (centres unmarked) [Compound S-13], which Fog ([4]; 0.22 x10^-3 mol/molAg) is on record?
Its Fog is 0.10.

What about the “Photographic Sensitivity SWR2B” value ([4]; 0.22 x10^-3 mol/molAg) of the same compound?
Its value is 204.

And the Fog ([4]; 0.44 x10^-3 mol/molAg)?
The Fog was 0.16.

What about the “Photographic Sensitivity SWR2B” value ([4]; 0.44 x10^-3 mol/molAg) of the same compound?
The value was 209.

Which results are given for `CCSCCN(c1ccc(Cl)cc1)C(C)C(=O)O` (centres unmarked) [Compound S-12, N-(4-Chlorophenyl)-N-(2-thioethyl-ethyl)alanine sodium salt]?
Fog ([4]; 0.22 x10^-3 mol/molAg): 0.11; Photographic Sensitivity SWR2B ([4]; 0.22 x10^-3 mol/molAg): 191; Fog ([4]; 0.44 x10^-3 mol/molAg): 0.16; Photographic Sensitivity SWR2B ([4]; 0.44 x10^-3 mol/molAg): 204
